Each structure is given as a SMILES string. pKi: −log10 of the molar value. Where a name gives a salt, the structure may show the parent alone.

Here are results for one compound from US9512140B2, “(Thieno[2,3-b][1,5]benzoxazepin-4-yl)piperazin-1-yl compounds as dual activity H1 inverse agonists/5-HT2A antagonists” (priority 2011, dated 2016).

Experiment [1] concerns the target T1, 5-HT2A Receptor (Rattus norvegicus, UniProt P14842).
T1 construct: from tissue; host or cells: rat brain (frontal cortex against cerebellum), in vivo
Kind of experiment: 5-HT2A receptor occupancy (MDL 100907 tracer). Particulars: oral gavage, RO 1 hr. after dosing. Format: in vivo. Here is the method: Briefly, male Sprague-Dawley rats (Harlan Sprague-Dawley, Indianapolis, Ind.) weighing approximately 230-280 grams are given ad lib access to food and water until the beginning of the 3-hr. experimental protocol. 1 mg/kg ketanserin (non-selective 5-HT2A antagonist) is used as a positive control to establish assay validity. Test compounds or control are administered by oral gavage in a vehicle comprised of 20% hydroxypropyl beta-cyclodextrin. MDL 100907 ((R)-(+)-α-(2,3-Dimethoxyphenyl)-1-[2-(4-fluorophenyl)ethyl]-4-piperidinemethanol), a selective 5-HT2A antagonist, is used as a tracer. […] It is at the time of tracer administration that RO is considered to be measured. […] The level of MDL 100907 tracer is measured in each cortical and cerebellar sample. RO is calculated using the well-established ratio method which employs a region of high receptor density representative of total binding (frontal cortex) normalized by an area without or with very low levels of receptor (cerebellum). […]
Cortex and cerebellar samples are weighed and placed in conical centrifuge tubes on ice. […] Standards are prepared by adding known quantities of analyte to brain tissue samples from non-treated rats and processing as described above. […]

The target of experiment [2] is T2, recombinant 5-HT2A receptor (human) (Homo sapiens, UniProt P28223).
T2 construct: expressed in transfected cells; host or cells: AV-12 (membranes)
T2 sequence (P28223 whole entry): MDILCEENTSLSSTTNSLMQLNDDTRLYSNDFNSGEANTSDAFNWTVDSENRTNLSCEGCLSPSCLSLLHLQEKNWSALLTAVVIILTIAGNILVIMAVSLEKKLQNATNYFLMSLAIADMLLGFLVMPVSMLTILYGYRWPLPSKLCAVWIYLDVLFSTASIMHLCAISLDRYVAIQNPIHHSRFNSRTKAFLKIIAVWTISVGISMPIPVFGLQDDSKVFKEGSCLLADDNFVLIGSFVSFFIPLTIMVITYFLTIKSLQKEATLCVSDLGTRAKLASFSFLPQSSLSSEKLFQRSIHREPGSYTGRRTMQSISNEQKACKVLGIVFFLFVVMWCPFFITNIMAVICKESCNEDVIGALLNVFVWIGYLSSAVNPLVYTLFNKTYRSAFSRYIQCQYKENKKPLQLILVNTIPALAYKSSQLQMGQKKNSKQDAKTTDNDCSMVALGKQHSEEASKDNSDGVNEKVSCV
In words: 5-HT2A competition binding assay ([3H]-Ketanserin, SPA). Here is the method:
[^3H]-Ketanserin binding experiments are carried out in SPA 96-well format. Membranes used in this assay are prepared from AV-12 cells stably expressing recombinant 5-HT2A receptor (human). The incubation is initiated by the addition of a mixture of WGA YSi SPA beads (1 mg/well, Perkin Elmer (MA, USA), RPNQ0011) and 2 μg membranes to assay buffer (67 mM Tris, 0.5 mM EDTA; pH 7.6) containing 3.1 nM [^3H]-Ketanserin and varying concentrations of the test compound (10 point concentration response curves). Non-specific binding is determined in the presence of 20 μM 1-(1-Naphthyl) piperazine. Samples are incubated for 4 hr. at room temperature (22° C.) and then read in a Microbeta Trilux.
Curves are evaluated using a 4-parameter logistic nonlinear equation to obtain the concentration of competitor causing 50% inhibition of radioligand binding (IC50). Equilibrium dissociation constants (Ki) are calculated according to the equation Ki=IC50/(1+L/Kd), where L equals the concentration of radioligand used in the experiment and Kd equals the equilibrium dissociation constant of the radioligand for the receptor, determined from standard saturation analysis or homologous competition experiments. Reported values for Ki, where n values are indicated, are shown as geometric mean±the standard error of the mean (SEM), with the number of replicate determinations indicated by n. […]

In experiment [3] the target is 5-HT7 (Homo sapiens, UniProt P34969). In words: 5-HT7 binding. An excerpt:
Further, the compounds of the invention may be tested in binding assays and functional activity assays by well known methods for other physiologically important receptors such as, but not limited to, the hERO channel, other serotonin receptors (specifically 5-HT1B, 5-HT1D, receptors, lack of agonist activity at 5-HT2B receptors, 5-HT2C, 5-HT5, 5-HT6, and 5-HT7 receptors), dopaminergic receptors (specifically D1, D2, and D3), GABAA receptors, adrenergic receptors and monoamine transporters.

Experiment [4] deals with Rats. In words: Rat sleep studies, coadministration with citalopram. The note with it: coadministered with citalopram. It is filed as in vivo.

Chain of 5-HT7 (P34969 whole entry, species assumed): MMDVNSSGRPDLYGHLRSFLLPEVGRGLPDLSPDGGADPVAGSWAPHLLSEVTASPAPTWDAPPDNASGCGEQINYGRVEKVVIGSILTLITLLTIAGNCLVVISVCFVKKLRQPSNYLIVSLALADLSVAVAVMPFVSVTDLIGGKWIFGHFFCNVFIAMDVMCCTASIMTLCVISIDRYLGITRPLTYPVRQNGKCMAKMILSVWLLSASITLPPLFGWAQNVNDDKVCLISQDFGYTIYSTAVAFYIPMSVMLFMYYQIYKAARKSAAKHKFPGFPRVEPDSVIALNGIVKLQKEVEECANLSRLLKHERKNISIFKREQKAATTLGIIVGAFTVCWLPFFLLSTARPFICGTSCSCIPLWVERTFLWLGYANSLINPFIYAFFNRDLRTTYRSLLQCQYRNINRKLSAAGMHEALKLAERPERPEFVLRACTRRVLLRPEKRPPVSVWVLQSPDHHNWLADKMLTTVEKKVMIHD
T1 sequence (P14842 whole entry): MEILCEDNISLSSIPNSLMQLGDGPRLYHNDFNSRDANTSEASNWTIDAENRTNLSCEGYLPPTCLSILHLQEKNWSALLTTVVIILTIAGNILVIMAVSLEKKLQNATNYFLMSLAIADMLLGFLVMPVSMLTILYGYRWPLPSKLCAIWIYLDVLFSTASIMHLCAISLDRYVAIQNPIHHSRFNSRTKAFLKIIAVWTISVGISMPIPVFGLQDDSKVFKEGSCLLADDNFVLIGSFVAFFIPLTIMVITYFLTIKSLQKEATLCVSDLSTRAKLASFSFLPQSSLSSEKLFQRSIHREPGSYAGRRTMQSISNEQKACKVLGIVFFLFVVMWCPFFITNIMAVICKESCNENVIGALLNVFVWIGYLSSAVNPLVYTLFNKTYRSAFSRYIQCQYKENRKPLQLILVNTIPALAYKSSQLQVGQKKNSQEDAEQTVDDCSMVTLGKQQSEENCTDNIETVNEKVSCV

The term ED50 denotes the dose at which the effect has come halfway, by size or by number of responders. Low values mean an effect at a small dose, high ones a need for a large dose. One may read the pKi as the negative decadic logarithm of the Ki, by convention in mol/L. In the case of `Cc1ccc2c(c1)Oc1sc(C)cc1C(N1CCN(CC(C)(C)C(=O)O)CC1)=N2` [Example 2, 3-[4-(2,8-Dimethylthieno[2,3-b][1,5]benzoxazepin-4-yl)piperazin-1-yl]-2,2-dimethyl-propanoic acid dihydrochloride], the 50% effective dose (ED50) in experiment [1] is 0.09 mg/kg. For the same compound, the negative logarithm of the Ki (pKi) in experiment [2] was 7.95; in experiment [3] it was under 5.69. Also, the “NREM sleep on coadministration with citalopram” value in experiment [4] is “significantly increase NREM sleep at significantly lower doses”.
